From patent US20260324636A1, “COMPOSITION FOR PROVIDING PLANT WITH STRESS RESISTANCE” (KIRIN HOLDINGS KABUSHIKI KAISHA, priority 2022, published 2026) come the findings set out here.

The subject of one assay is OsZAT12. Description: OsZAT12 gene expression by real-time PCR, Example 12. The assay is classed as in vivo, rice. The conditions noted are these: Oryza sativa; 0.5 mM in medium, 30° C. for 2 hours, aboveground part; read-out: OsZAT12 expression level, increase vs control. An excerpt: In order to design primers for the target genes necessary for gene expression analysis by real-time PCR, homologs of Arabidopsis thaliana high-temperature-responsive genes in rice were searched for. The amino acid sequence of Arabidopsis thaliana ZAT12 (AGI code: AT5G59820) was obtained from TAIR (https://www.arabidopsis.org/), and the nucleotide sequence of the homolog was obtained using RAP-DB (https://rapdb.dna.affrc.go.jp/). As a reference gene, the nucleotide sequence of the homolog of Arabidopsis thaliana ACTIN2 (AGI code: AT3G18780) was also obtained. Homolog genes in rice were designated as OsZAT12 and OsACT1, respectively.
The materials as employed in Example 3 were used.
The method as employed in Example 3 was employed.
The rice samples subjected to germination for 3 days were inoculated into a liquid medium consisting of a ½ Murashige and Skoog Plant Salt Mixture. Specifically, a liquid medium was dispensed at 3 ml/well to a 12-well microplate (IWAKI), and 3 samples were transferred to each well. N-acetylglutamic acid was applied to each well to the final concentration of 0.5 mM in the medium, incubation was performed at 30° C. for 2 hours, and RNA was extracted from the aboveground part using the RNeasy Plant Mini Kit. […]
Thereafter, the relative expression level of the target gene upon N-acetylglutamic acid treatment was calculated by the ΔΔCt method.
(Real-time PCR tracks product formation cycle by cycle.)

The subject of a further assay is ZAT10. Description: Histone H4 acetylation level of ZAT10 by chromatin immunoprecipitation and quantitative PCR, Example 14. The assay is classed as in vivo, Arabidopsis thaliana (Col-0). The note with it: Arabidopsis thaliana; 0.4 mM in medium, 2 hours after application; read-out: histone H4 acetylation level of ZAT10, increase vs group not subjected to the treatment. The procedure:
A wild-type Arabidopsis thaliana strain (accession: Col-0) was used as an experimental material. Seeds were purchased from Inplanta Innovations Inc.
A liquid medium containing a ½ Murashige and Skoog Plant Salt Mixture (Nacalai) and 1 (w/v) % sucrose (FUJIFILM Wako) was used as a growth medium.
Arabidopsis thaliana seeds were sterilized with the use of a Kitchen Haiter® liquid (Kao Corporation) diluted to one-half concentration with distilled water for 3 minutes, washed 3 times with sterile distilled water, and then incubated at 4° C. overnight. The growth medium (100 ml) was prepared in a 300-ml flask, the incubated seeds were seeded therein, the flask was transferred to an incubator (TOMY), and shake culture was then initiated. The incubator was maintained at a temperature of 22° C. for a daily cycle of 16 hours light and 8 hours darkness, and the rotation speed of the shaker was set at 180 rpm.
A stock solution of N-acetylglutamic acid (Tokyo Chemical Industry Co., Ltd.) was added to Arabidopsis thaliana 7 days after seeding to the final concentration of 0 mM and 0.4 mM in the media, followed by incubation for 2 hours. Sample fixation following incubation was performed in accordance with Yamaguchi et al (Arabidopsis Book, Feb. 17, 2014; 12: e0170). […]

In the case of `CC(=O)N[C@@H](CCC(=O)O)C(=O)O` [N-acetylglutamic acid], in the assay with OsZAT12, the fold induction at 500 µM came to 2.9. Further, the fold induction at 400 µM in the assay on ZAT10 was found to be 1.9.
